Read-outs that look alike come from different tables or passages of the source. Values belong to the compound of their own block, whether it stands above or below them.
What was measured:
Assay in all cases: Ambit kinase profiling, competition binding
[1] = biological target: T1, ACVR1 (Homo sapiens, UniProt Q04771)
T1 construct: purchased Ambit Biosciences (KINOMEscan)
T1 sequence (Q04771 21-509): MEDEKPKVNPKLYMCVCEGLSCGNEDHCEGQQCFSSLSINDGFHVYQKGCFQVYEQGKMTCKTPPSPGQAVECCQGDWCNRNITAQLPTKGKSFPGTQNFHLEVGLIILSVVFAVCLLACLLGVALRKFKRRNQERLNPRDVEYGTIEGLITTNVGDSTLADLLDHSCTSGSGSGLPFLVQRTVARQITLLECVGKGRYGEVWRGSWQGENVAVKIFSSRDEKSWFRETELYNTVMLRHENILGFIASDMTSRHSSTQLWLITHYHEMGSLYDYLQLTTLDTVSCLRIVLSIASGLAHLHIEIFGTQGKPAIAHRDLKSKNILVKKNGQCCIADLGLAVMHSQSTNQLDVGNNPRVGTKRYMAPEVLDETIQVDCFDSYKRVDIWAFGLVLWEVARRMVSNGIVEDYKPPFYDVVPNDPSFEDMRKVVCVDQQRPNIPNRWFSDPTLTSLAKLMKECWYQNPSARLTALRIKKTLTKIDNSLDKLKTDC
Experimental: (§1) Also included in the kinase profile are four isoforms of PKC (δ, ε, η, θ) and eight isoforms of CAMKs (CAMKIα, δ, γ; CAMKIIα, β, δ, γ; CAMK4).
(§2) The global kinase profiling experiment was performed by Ambit Biosciences.

[2] = biological target: T2, CLK4 (Homo sapiens, UniProt Q9HAZ1)
T2 construct: purchased Ambit Biosciences (KINOMEscan)
Experimental: as §1, §2

[3] = biological target: T3, LATS1 (Homo sapiens, UniProt O95835)
T3 construct: purchased Ambit Biosciences (KINOMEscan)
T3 sequence (O95835 1-1130): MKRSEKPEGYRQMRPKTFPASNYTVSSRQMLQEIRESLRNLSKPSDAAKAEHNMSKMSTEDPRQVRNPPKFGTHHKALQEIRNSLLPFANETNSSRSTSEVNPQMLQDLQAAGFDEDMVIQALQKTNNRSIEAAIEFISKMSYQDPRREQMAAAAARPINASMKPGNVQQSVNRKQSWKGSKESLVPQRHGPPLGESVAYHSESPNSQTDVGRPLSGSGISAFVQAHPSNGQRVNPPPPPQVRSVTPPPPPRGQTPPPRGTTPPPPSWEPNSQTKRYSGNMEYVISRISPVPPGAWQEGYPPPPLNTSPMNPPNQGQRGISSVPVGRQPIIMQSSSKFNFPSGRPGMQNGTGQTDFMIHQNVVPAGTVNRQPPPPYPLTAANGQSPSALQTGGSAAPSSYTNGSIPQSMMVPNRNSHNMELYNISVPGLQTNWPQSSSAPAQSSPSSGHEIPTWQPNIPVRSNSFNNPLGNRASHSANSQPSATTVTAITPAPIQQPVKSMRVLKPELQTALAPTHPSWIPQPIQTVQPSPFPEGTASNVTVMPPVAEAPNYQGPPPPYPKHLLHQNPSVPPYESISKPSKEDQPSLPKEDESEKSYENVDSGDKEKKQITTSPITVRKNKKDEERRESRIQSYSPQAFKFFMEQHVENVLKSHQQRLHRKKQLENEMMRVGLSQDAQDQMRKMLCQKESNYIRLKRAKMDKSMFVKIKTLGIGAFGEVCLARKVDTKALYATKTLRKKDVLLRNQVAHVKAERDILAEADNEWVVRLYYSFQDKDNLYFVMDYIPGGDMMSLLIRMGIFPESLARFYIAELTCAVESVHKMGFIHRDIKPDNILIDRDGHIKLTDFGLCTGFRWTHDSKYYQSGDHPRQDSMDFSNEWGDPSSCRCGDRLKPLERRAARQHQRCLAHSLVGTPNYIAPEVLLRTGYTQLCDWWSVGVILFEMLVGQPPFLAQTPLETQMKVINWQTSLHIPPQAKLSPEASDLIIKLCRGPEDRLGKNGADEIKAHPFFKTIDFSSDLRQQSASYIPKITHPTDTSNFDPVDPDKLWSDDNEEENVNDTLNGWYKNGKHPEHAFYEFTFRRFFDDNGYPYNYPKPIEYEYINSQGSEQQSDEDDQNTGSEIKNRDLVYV
Experimental: as §1, §2

[4] = biological target: T4, PRKD1 (Homo sapiens, UniProt Q15139)
T4 construct: purchased Ambit Biosciences (KINOMEscan)
T4 sequence (Q15139 1-912): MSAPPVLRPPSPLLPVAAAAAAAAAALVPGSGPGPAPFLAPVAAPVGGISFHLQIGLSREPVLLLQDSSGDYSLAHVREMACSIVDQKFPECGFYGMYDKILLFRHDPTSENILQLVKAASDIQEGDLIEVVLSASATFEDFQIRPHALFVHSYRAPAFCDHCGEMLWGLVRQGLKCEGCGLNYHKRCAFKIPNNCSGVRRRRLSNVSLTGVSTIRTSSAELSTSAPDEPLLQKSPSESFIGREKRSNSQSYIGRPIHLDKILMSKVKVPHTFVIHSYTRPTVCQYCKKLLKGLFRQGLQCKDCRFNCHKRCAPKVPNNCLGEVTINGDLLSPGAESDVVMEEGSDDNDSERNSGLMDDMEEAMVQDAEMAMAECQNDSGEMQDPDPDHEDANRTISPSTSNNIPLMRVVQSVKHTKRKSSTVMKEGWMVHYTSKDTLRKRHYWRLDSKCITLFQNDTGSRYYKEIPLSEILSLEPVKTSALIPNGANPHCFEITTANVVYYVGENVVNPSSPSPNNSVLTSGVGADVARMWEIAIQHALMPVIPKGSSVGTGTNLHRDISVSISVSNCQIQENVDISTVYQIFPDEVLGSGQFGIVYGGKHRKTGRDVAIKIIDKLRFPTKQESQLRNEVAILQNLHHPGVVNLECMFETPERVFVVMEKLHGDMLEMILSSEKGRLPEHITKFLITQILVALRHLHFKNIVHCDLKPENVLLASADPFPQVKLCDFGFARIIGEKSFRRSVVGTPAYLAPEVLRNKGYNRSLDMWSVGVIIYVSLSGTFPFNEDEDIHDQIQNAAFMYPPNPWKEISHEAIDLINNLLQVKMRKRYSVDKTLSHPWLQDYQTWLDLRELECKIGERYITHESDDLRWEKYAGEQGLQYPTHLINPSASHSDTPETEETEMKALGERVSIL
Experimental: as §1, §2

[5] = biological target: T5, STK35 (Homo sapiens, UniProt Q8TDR2)
T5 construct: purchased Ambit Biosciences (KINOMEscan)
Experimental: as §1, §2

T5 sequence (Q8TDR2 whole entry): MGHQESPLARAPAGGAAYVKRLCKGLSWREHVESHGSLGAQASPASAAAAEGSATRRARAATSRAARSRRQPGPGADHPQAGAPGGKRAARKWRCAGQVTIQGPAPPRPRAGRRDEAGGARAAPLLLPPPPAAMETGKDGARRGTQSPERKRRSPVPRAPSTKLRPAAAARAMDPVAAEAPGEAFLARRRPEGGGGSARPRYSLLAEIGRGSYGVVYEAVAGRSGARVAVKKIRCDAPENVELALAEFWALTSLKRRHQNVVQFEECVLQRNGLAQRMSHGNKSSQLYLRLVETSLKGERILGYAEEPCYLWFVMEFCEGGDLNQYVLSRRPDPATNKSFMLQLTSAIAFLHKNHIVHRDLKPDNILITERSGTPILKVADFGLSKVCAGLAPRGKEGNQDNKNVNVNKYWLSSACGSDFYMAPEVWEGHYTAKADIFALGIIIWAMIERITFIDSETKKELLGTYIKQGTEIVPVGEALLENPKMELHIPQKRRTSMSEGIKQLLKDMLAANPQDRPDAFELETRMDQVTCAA
T2 sequence (Q9HAZ1 whole entry): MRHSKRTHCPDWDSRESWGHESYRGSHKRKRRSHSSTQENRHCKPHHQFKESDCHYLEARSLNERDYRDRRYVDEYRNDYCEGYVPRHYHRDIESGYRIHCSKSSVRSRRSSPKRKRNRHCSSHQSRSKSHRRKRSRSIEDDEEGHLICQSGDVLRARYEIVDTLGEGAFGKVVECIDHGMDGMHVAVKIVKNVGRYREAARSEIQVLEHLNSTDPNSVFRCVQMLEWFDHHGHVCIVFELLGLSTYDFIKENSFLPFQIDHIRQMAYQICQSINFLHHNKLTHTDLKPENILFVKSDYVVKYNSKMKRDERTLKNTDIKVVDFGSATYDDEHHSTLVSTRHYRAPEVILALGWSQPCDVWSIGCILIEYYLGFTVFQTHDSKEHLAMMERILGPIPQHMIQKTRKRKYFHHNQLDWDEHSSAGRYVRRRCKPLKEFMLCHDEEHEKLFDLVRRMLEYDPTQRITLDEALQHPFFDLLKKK

inhibition at 10 µM ([1]; ACVR1, 10 µM, read-out: % Competition): 92%
inhibition at 10 µM ([2]; CLK4, 10 µM, read-out: % Competition): 88%
inhibition at 10 µM ([3]; LATS1, 10 µM, read-out: % Competition): 68%
inhibition at 10 µM ([4]; PRKD1 (PKD1), 10 µM, read-out: % Competition): 92%
inhibition at 10 µM ([5]; STK35, 10 µM, read-out: % Competition): 79%
Structure (SMILES): Fc1ccc(-c2c(-c3ccncc3)[nH]c3nccnc23)cc1 [Compound 122]

Structure (SMILES): CC(O)CNc1cc(-c2[nH]c3cccnc3c2-c2ccc(F)cc2)ccn1 (stereo not drawn) [Compound 140]
inhibition at 10 µM ([1]; read-out: % Competition): < 50%
inhibition at 10 µM ([2]; read-out: % Competition): < 50%
inhibition at 10 µM ([3]; read-out: % Competition): < 50%
inhibition at 10 µM ([4]; read-out: % Competition): 83%
inhibition at 10 µM ([5]; read-out: % Competition): < 50%

inhibition at 10 µM ([1]; ACVR1, compound concentration 10 uM, read-out: Percent Competition): 92%
inhibition at 10 µM ([2]; CLK4, compound concentration 10 uM, read-out: Percent Competition): 88%
inhibition at 10 µM ([3]; LATS1, compound concentration 10 uM, read-out: Percent Competition): 68%
inhibition at 10 µM ([4]; PRKD1, compound concentration 10 uM, read-out: Percent Competition): 92%
inhibition at 10 µM ([5]; STK35, compound concentration 10 uM, read-out: Percent Competition): 79%
Structure (SMILES): Fc1ccc(-c2c(-c3ccncc3)[nH]c3nccnc23)cc1 [RO1155697-000-005]
